Test systems include BT-549 breast; CCRF-CEM leukemia; DU-145 prostate; HS 578T breast; MALME-3M melanoma; MDA-MB-231 breast; MDA-MB-435; PC-3 prostate; SF-295 CNS; UACC-257 melanoma.
What all share (assay): NCI tumour cell line growth inhibition, 48 h

Molecules are shown by their SMILES.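 96-well plates; 48 h exposure; 5 concentrations. Endpoints by linear interpolation between flanking doses. Not reached: highest tested concentration assigned. The concentration for full growth arrest is given as TGI.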

For 22 compounds, TGI results are on record in PubChem BioAssay (NCI).

Consider `O=c1c2ccccc2n2n1Cc1ccccc1C2`, for which the TGI with BT-549 breast, in the assay on CCRF-CEM leukemia, in the assay on DU-145 prostate, in the assay with HS 578T breast, in the assay on MALME-3M melanoma and in the assay on MDA-MB-231 breast was greater than 100 µM in each case. Also, the TGI in the assay with MDA-MB-435, in the assay on PC-3 prostate, in the assay on SF-295 CNS and in the assay on UACC-257 melanoma was greater than 100 µM throughout.

In the case of `CCN(CC)c1nc(=O)c(C(=O)C(C)(C)C)c(C(C)(C)C)o1`, the TGI in the assay on BT-549 breast, in the assay with CCRF-CEM leukemia, in the assay on DU-145 prostate, with HS 578T breast, with MALME-3M melanoma and with MDA-MB-231 breast was greater than 100 µM each time. In addition, the TGI with MDA-MB-435, in the assay with PC-3 prostate, with SF-295 CNS and with UACC-257 melanoma was greater than 100 µM throughout.

Turning to `Cc1ccc(Cc2nn(C)c(=O)n2-n2cccc2)cc1`, the TGI in the assay with BT-549 breast, with CCRF-CEM leukemia, in the assay on DU-145 prostate, in the assay on HS 578T breast, in the assay on MALME-3M melanoma and in the assay on MDA-MB-231 breast was greater than 100 µM throughout. Moreover, the TGI with MDA-MB-435, in the assay with PC-3 prostate, in the assay with SF-295 CNS and in the assay on UACC-257 melanoma was greater than 100 µM each time.

Turning to `Cc1nc2ccc(S(=O)(=O)Nc3ccccc3Cl)cc2c(=O)n1NC(=O)CNc1ccccc1Cl`, the TGI with BT-549 breast, in the assay on CCRF-CEM leukemia, in the assay with DU-145 prostate, with HS 578T breast, in the assay on MALME-3M melanoma and in the assay with MDA-MB-231 breast was greater than 100 µM each time. In addition, the TGI in the assay on MDA-MB-435, in the assay with PC-3 prostate, in the assay on SF-295 CNS and in the assay on UACC-257 melanoma was greater than 100 µM throughout.

Turning to `O=c1[nH]cnc2c1ncn2C1SC(CO)C(O)C1O` (stereo not given), the TGI in the assay on BT-549 breast, in the assay with CCRF-CEM leukemia, in the assay on DU-145 prostate, in the assay on HS 578T breast, with MALME-3M melanoma and in the assay with MDA-MB-231 breast was greater than 100 µM throughout. The TGI in the assay with MDA-MB-435, with PC-3 prostate, with SF-295 CNS and in the assay on UACC-257 melanoma was greater than 100 µM in each case.

Regarding `Nc1ccc(-c2nc3ccccc3s2)cc1I`, the TGI in the assay with BT-549 breast is greater than 100 µM; in the assay with CCRF-CEM leukemia it was greater than 46.4 µM; in the assay with DU-145 prostate, greater than 100 µM; in the assay on HS 578T breast it was greater than 100 µM; with MALME-3M melanoma, greater than 100 µM; in the assay on MDA-MB-231 breast, greater than 100 µM. Also, the TGI in the assay with MDA-MB-435, with PC-3 prostate, with SF-295 CNS and with UACC-257 melanoma was greater than 100 µM throughout.

With `Cc1cn(C2CC(N=[N+]=[N-])C(CO)O2)c(=O)n(CCCCO)c1=O` (stereo not given), the TGI in the assay on BT-549 breast, in the assay with CCRF-CEM leukemia, in the assay on DU-145 prostate, in the assay on HS 578T breast, in the assay with MALME-3M melanoma and in the assay on MDA-MB-231 breast was greater than 100 µM each time. Further, the TGI with MDA-MB-435, with PC-3 prostate, in the assay on SF-295 CNS and in the assay on UACC-257 melanoma was greater than 100 µM throughout.

Turning to `COC(=O)c1cn(CCCCO)nn1`, the TGI in the assay on BT-549 breast, with CCRF-CEM leukemia, in the assay with DU-145 prostate, with HS 578T breast, with MALME-3M melanoma and in the assay with MDA-MB-231 breast was greater than 100 µM in each case. Moreover, the TGI with MDA-MB-435, in the assay with PC-3 prostate, in the assay with SF-295 CNS and in the assay with UACC-257 melanoma was greater than 100 µM each time.

Turning to `N#Cc1c(-c2ccccc2)c(C#N)c(=S)n(C2OCC(O)C(O)C2O)c1N` (stereo not given), the TGI in the assay on BT-549 breast, with CCRF-CEM leukemia, in the assay on DU-145 prostate, with HS 578T breast, in the assay on MALME-3M melanoma and in the assay on MDA-MB-231 breast was greater than 100 µM in each case. Moreover, the TGI in the assay on MDA-MB-435, with PC-3 prostate, with SF-295 CNS and in the assay on UACC-257 melanoma was greater than 100 µM throughout.

In the case of `COC(=O)c1c2c(cc3c1CC1(C3)Cc3ccc4c(c3C1=O)CCC4)CCC2` (stereo not given), the TGI is greater than 42.9 µM in the assay with BT-549 breast; greater than 81.8 µM in the assay with CCRF-CEM leukemia; greater than 100 µM with DU-145 prostate; 6.62 µM with HS 578T breast; greater than 45.5 µM with MALME-3M melanoma; 8.88 µM in the assay on MDA-MB-231 breast. The TGI in the assay on MDA-MB-435 was 3.22 µM; in the assay with PC-3 prostate, greater than 24.4 µM; with SF-295 CNS, greater than 28.8 µM; in the assay on UACC-257 melanoma, greater than 100 µM.

As for `NS(=O)(=O)c1ccc(N=Nc2nc3[nH]cnc(=S)c3[nH]2)cc1`, the TGI was greater than 37.9 µM with BT-549 breast; 4.21 µM in the assay on CCRF-CEM leukemia; 41.1 µM with DU-145 prostate; greater than 87 µM with HS 578T breast; 36 µM with MALME-3M melanoma; greater than 25.3 µM with MDA-MB-231 breast. Besides, the TGI with MDA-MB-435 was greater than 100 µM; in the assay on PC-3 prostate, greater than 41.4 µM; in the assay with SF-295 CNS it was greater than 64.7 µM; with UACC-257 melanoma, greater than 87.6 µM.

`Cc1cccc(Nc2nc(NNC(=O)Cc3ccccc3)nc(NNC(=O)c3ccncc3)n2)c1`: the TGI in the assay on BT-549 breast, in the assay on CCRF-CEM leukemia, with DU-145 prostate, in the assay with HS 578T breast, in the assay with MALME-3M melanoma and with MDA-MB-231 breast was greater than 10 µM each time. The TGI with MDA-MB-435, in the assay with PC-3 prostate, in the assay on SF-295 CNS and in the assay with UACC-257 melanoma was greater than 10 µM throughout.

As to `CCN(CC)CCNc1ccc2ncn3c4c(OC)ccc(=O)c4c(O)c1c23`, the TGI in the assay on BT-549 breast is greater than 100 µM; with CCRF-CEM leukemia, greater than 100 µM; in the assay on DU-145 prostate, greater than 100 µM; in the assay on HS 578T breast it was greater than 100 µM; with MALME-3M melanoma, 98.6 µM; in the assay on MDA-MB-231 breast, greater than 100 µM. The TGI in the assay with MDA-MB-435, in the assay with PC-3 prostate, in the assay with SF-295 CNS and with UACC-257 melanoma was greater than 100 µM throughout.

As for `CCCCC1=CC1(C#N)[N+](=O)[O-]` (stereo not given), the TGI is greater than 100 µM in the assay with BT-549 breast; 63.6 µM in the assay on CCRF-CEM leukemia; greater than 100 µM with DU-145 prostate; greater than 100 µM in the assay with HS 578T breast; greater than 100 µM with MALME-3M melanoma; greater than 100 µM in the assay with MDA-MB-231 breast. Moreover, the TGI with MDA-MB-435, in the assay with PC-3 prostate, in the assay with SF-295 CNS and in the assay on UACC-257 melanoma was greater than 100 µM throughout.

Take `O=C1CSC(c2ccccc2[N+](=O)[O-])N1c1ccc(-n2c(-c3ccccc3)nc3ccccc3c2=O)cc1` (stereo not given): the TGI is greater than 100 µM in the assay on BT-549 breast; greater than 100 µM in the assay on CCRF-CEM leukemia; greater than 100 µM in the assay on DU-145 prostate; 54.8 µM in the assay on HS 578T breast; greater than 100 µM in the assay on MALME-3M melanoma; greater than 100 µM in the assay with MDA-MB-231 breast. In addition, the TGI in the assay on MDA-MB-435 was greater than 100 µM; in the assay on PC-3 prostate it was greater than 100 µM; with SF-295 CNS, 64.3 µM; in the assay with UACC-257 melanoma, greater than 100 µM.

Consider `O=C1c2ccccc2-n2c1nc1cc(Cl)ccc1c2=O`, for which the TGI is greater than 100 µM with BT-549 breast; 9.2 µM with CCRF-CEM leukemia; greater than 100 µM in the assay with DU-145 prostate; greater than 100 µM with HS 578T breast; 21.9 µM in the assay with MALME-3M melanoma; greater than 100 µM in the assay on MDA-MB-231 breast. Also, the TGI in the assay with MDA-MB-435 is 4.23 µM; with PC-3 prostate, greater than 100 µM; in the assay with SF-295 CNS, greater than 100 µM; with UACC-257 melanoma it was 29.1 µM.

As to `C[N+]1(CCCC[N+]2(C)CCCCCCC2)CCCCCCC1`, the TGI was greater than 100 µM with BT-549 breast; greater than 100 µM with CCRF-CEM leukemia; greater than 100 µM with DU-145 prostate; 60.4 µM in the assay with HS 578T breast; greater than 100 µM in the assay on MALME-3M melanoma; greater than 100 µM in the assay with MDA-MB-231 breast. For the same compound, the TGI in the assay with MDA-MB-435, with PC-3 prostate, in the assay on SF-295 CNS and in the assay on UACC-257 melanoma was greater than 100 µM each time.

Take `CCN(CC)CCOCC1CCCN2CCCCC12` (stereo not given): the TGI with BT-549 breast, in the assay on CCRF-CEM leukemia, in the assay on DU-145 prostate, in the assay on HS 578T breast, in the assay on MALME-3M melanoma and with MDA-MB-231 breast was greater than 100 µM each time. The TGI with MDA-MB-435, with PC-3 prostate, in the assay with SF-295 CNS and in the assay on UACC-257 melanoma was greater than 100 µM in each case.

For the compound `O=C(Nn1c(-c2ccccc2)nc2ccccc2c1=O)c1ccc(O)cc1`, the TGI in the assay with BT-549 breast, in the assay with CCRF-CEM leukemia, with DU-145 prostate, in the assay with HS 578T breast, in the assay on MALME-3M melanoma and in the assay with MDA-MB-231 breast was greater than 100 µM each time. The TGI with MDA-MB-435, in the assay on PC-3 prostate, with SF-295 CNS and in the assay on UACC-257 melanoma was greater than 100 µM each time.

As to `COc1ccc2[nH]cc(CN3CCC(CO)(c4ccccc4)CC3)c2c1`, the TGI in the assay on BT-549 breast was greater than 100 µM; with CCRF-CEM leukemia, 75.1 µM; with DU-145 prostate, greater than 100 µM; in the assay with HS 578T breast, 70.9 µM; with MALME-3M melanoma, 62.3 µM; in the assay with MDA-MB-231 breast, 80.9 µM. For the same compound, the TGI in the assay on MDA-MB-435 is 47.6 µM; with PC-3 prostate it was greater than 100 µM; in the assay with SF-295 CNS it was 39.8 µM; with UACC-257 melanoma, 37.2 µM.

`CCCCCCCCCCCCCCCCNc1ccc2c(c1)OCCOCCOCCOCCO2`: the TGI in the assay on BT-549 breast was 11.6 µM; with CCRF-CEM leukemia it was 7.62 µM; in the assay with DU-145 prostate, 15.3 µM; in the assay with HS 578T breast, 9.1 µM; with MALME-3M melanoma it was 13.6 µM; in the assay on MDA-MB-231 breast it was 11.9 µM. Further, the TGI in the assay with MDA-MB-435 came out at 11.1 µM; with PC-3 prostate it was 6.43 µM; in the assay on SF-295 CNS, 7.94 µM; in the assay on UACC-257 melanoma, 6.91 µM.

Regarding `Nc1nc(Sc2ccc([N+](=O)[O-])cn2)c2[nH]cnc2n1`, the TGI in the assay with BT-549 breast is 52.1 µM; in the assay with CCRF-CEM leukemia, greater than 41.5 µM; in the assay on DU-145 prostate, 43.8 µM; with HS 578T breast it was 77.8 µM; in the assay with MALME-3M melanoma it was 36.1 µM; in the assay with MDA-MB-231 breast, 35.1 µM. The TGI is greater than 46.1 µM in the assay with MDA-MB-435, 47.6 µM in the assay with PC-3 prostate, greater than 94.2 µM in the assay on SF-295 CNS and greater than 100 µM with UACC-257 melanoma.
